These molecules were tested against Nav1.5 (sodium channel protein type 5 subunit alpha) (Homo sapiens, UniProt Q14524) (assay: Inhibition of human Nav1.5 expressed in HEK293 cells at 1 uM by whole cell patch clamp assay). Conditions: HEK293 cells that express human Nav1.5.
Format: cell-based

Chain of Nav1.5 (sodium channel protein type 5 subunit alpha) (Q14524 whole entry): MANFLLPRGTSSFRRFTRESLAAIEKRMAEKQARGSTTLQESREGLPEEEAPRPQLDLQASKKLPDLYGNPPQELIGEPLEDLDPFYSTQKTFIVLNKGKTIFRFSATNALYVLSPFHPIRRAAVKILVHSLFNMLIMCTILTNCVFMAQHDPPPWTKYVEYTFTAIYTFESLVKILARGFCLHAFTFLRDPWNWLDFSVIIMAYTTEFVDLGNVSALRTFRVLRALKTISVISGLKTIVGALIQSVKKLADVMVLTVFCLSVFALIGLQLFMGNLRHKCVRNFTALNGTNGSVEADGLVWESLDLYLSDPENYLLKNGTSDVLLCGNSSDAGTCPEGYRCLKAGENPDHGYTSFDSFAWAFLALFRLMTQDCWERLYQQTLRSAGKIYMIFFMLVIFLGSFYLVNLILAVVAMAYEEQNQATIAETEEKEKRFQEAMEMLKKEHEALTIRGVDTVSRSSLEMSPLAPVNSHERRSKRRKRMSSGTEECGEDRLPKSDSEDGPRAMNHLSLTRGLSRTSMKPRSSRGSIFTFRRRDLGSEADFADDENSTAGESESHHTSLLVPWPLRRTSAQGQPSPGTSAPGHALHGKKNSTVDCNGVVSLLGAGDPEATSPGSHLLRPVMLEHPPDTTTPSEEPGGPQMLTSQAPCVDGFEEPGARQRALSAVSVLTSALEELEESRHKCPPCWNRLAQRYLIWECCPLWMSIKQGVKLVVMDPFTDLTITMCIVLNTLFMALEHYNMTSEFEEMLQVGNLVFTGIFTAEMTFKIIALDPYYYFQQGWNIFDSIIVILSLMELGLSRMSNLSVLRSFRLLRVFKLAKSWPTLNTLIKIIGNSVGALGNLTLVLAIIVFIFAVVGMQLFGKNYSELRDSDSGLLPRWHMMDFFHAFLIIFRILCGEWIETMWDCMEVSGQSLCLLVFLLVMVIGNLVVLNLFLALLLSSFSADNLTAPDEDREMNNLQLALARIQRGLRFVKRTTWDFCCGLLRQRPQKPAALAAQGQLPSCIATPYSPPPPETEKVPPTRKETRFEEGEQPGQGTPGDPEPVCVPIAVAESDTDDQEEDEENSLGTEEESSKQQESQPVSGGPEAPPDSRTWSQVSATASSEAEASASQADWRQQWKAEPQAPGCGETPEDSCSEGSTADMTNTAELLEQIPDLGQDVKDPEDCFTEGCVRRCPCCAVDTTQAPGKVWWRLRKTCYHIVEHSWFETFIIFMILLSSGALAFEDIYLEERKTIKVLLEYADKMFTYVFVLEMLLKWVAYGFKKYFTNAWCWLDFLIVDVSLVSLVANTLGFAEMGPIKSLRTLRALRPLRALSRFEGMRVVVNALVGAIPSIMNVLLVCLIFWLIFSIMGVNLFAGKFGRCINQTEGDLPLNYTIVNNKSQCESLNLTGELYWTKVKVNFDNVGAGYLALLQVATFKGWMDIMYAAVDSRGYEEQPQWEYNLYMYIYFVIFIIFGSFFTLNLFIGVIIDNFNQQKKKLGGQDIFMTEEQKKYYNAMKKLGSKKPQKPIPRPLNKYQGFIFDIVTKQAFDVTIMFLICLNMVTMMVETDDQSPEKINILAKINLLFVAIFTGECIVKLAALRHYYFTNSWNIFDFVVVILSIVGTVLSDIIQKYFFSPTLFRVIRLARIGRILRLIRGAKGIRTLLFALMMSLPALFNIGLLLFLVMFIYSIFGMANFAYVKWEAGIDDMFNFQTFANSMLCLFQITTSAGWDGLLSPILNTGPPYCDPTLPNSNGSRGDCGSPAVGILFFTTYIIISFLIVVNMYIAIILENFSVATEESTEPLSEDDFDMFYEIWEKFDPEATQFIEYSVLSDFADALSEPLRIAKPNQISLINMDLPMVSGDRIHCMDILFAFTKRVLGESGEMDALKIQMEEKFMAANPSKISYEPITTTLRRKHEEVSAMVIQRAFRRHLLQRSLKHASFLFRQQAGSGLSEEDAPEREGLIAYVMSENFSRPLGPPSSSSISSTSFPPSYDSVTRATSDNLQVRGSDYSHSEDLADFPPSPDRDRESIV

**Q.** For `COc1ccccc1OCC(Cn1nc2ccc(-c3ccc(OC(F)(F)F)cc3)cn2c1=O)OC` (centres undefined), which inhibition at 1 µM is on record?
**A.** The inhibition at 1 µM was 55%.

**Q.** How did the inhibition at 1 µM turn out when `Cc1nc(Cn2nc3ccc(-c4ccc(Oc5ccc(Cl)cc5)cc4)cn3c2=O)no1` was run?
**A.** Its inhibition at 1 µM is 68.4%.

**Q.** For `Cc1noc(Cn2nc3ccc(-c4ccc(Oc5ccc(Cl)cc5)cc4)cn3c2=O)n1`, which inhibition at 1 µM is on record?
**A.** Its inhibition at 1 µM is 55.8%.

**Q.** `Cc1noc(Cn2nc3ccc(-c4ccc(Oc5ccc(F)cc5)cc4)cn3c2=O)n1` was tested. Which inhibition at 1 µM did it give?
**A.** The inhibition at 1 µM was 71.2%.

Source: ChEMBL document CHEMBL2146374, “Fused heterocyclic compounds as ion channel modulators: patent highlight” (ACS Med Chem Lett, 2012)
